{"source": "patent US20080206881A1", "about": "“DIAGNOSTIC MARKER FOR NEURODEGENERATIVE DISEASES” (priority 2007, published 2008)", "key": {"ALS patients [1]": {"test_system": "ALS patients", "conditions": "cited from earlier work"}, "ALS patients [2]": {"test_system": "ALS patients", "assay": "Serum protein carbonyl determination in ALS patients (2,4-dinitrophenylhydrazine method)", "assay_type": "in vivo, human", "conditions": "for serum protein carbonyl level under high-dose vitamin E: ALS patients (n=12) on high-dose vitamin E for 10.4±2.5 months before starting melatonin", "source_text": "Protein carbonyl content of blood serum and other body fluids can be determined according to the 2,4-dinitrophenylhydrazine method described by Levine et al. (Levine Methods Enzymol 1990: 186: 464-478). The protein content can be measured according to Lowry et al. (Lowry J Biol Chem 1951: 193: 265-275) to enable a normalization of the protein carbonyl level. Other suitable methods and reagents known in the field to measure protein content and/or the content of protein carbonyls can also be used. Protein carbonyl measurements were performed in the serum of 19 consecutively admitted ALS patients (61.7±1.9 yr, 12 males, […] daily as suppositories at bedtime) and of ten healthy controls (61.2±2.0 years, five males, five females). Protein carbonyls were determined by a variant of the 2,4-dinitrophenylhydrazine method (Levine Methods Enzymol 1990: 186: 464-478). Serum was diluted 1:10 with ice-cold 5-mM pf potassium phosphate buffer, pH 7.5, containing leupeptin (0.5 μg/mL), aprotinin (0.5 μg/mL), and pepstatin A (0.7 μg/mL); 300 μL was used for a single determination. Deviations from the original procedure concerned elimination of the chromogen: protein pellets were washed three times with 1 mL of ethanol/ ethylacetate (1:1); particular attention was given to thorough resuspension (vortexing) and complete removal of the supernatant using Pasteur pipettes, and thereafter, stripes of blotting paper. Protein was measured according to Lowry et al. (Lowry J Biol Chem 1951: 193: 265-275)."}, "ALS mouse model": {"test_system": "ALS mouse model", "conditions": "high-dose oral melatonin; U.S. Pub. No. 2004/0192745; cited from earlier work"}, "Alzheimer's disease (AD)": {"test_system": "Alzheimer's disease (AD)", "conditions": "in vivo; cited from earlier work"}, "ALS patients [3]": {"test_system": "ALS patients", "assay": "Clinical outcome (ALSFRS) of ALS patients with or without continuous high-dose vitamin E", "assay_type": "in vivo, human", "conditions": "ALSFRS after 1 yr of melatonin treatment", "source_text": "Remarkably, most of these patients (n=12) had already been on high-dose vitamin E, another antioxidant, for 10.4±2.5 months before starting the melatonin treatment."}, "ALS": {"test_system": "ALS", "conditions": "cited from earlier work; for clinical efficacy in ALS: clinical setting, literature"}}, "note": "Entries after “also recorded” stand apart in the source; their conditions may differ. Like-named read-outs stand apart in the source and are kept apart here.", "data": [{"compound": "Nc1nc2ccc(OC(F)(F)F)cc2s1", "note": "[RILUZOLE®, 2-amino-6-(trifluoromethoxxy)benzothiazole]", "values": [{"measurement": "other important outcome measures", "setting": "ALS patients [1]", "result": "lacked benefit"}, {"measurement": "side effects", "setting": "ALS patients [1]", "result": "asthenia, nausea, anorexia, diarrhea, headache, and increase in liver transaminases; also recorded: enhances catabolism"}]}, {"compound": "COc1ccc2[nH]cc(CCNC(C)=O)c2c1", "note": "[melatonin]", "values": [{"measurement": "serum protein carbonyl content after melatonin treatment", "setting": "ALS patients [2]; ALS patients n=19, 300 mg melatonin daily as suppositories at bedtime, mean treatment time 4.68±0.22 months, versus matched healthy controls n=10", "result": "decrease to levels of matched healthy controls; also recorded: normalized to control values; also recorded: fully reverted to control levels; also recorded: normalizes the serum protein carbonyl level to control level"}, {"measurement": "survival of ALS mouse model", "setting": "ALS mouse model", "result": "prolongation of survival; also recorded: exhibit efficacy"}]}, {"compound": "vitamin E", "values": [{"measurement": "disease progression in AD", "setting": "Alzheimer's disease (AD)", "result": "slowing of disease progression"}, {"measurement": "serum protein carbonyl level under high-dose vitamin E", "setting": "ALS patients [2]", "result": "does not change the level of serum protein carbonyls"}, {"measurement": "serum protein carbonyl level under high-dose vitamin E", "setting": "ALS patients [2]; listed as Vitamin E", "result": "does not decrease the serum protein carbonyl level"}, {"measurement": "clinical outcome (ALSFRS)", "setting": "ALS patients [3]", "result": "did not reveal any beneficial effect"}, {"measurement": "risk of developing ALS", "setting": "ALS; 10-yr prospective study with over 900,000 individuals, regular intake of vitamin E", "result": "decreased risk of developing ALS"}, {"measurement": "clinical efficacy in ALS", "setting": "ALS", "result": "did not reveal any beneficial effect; also recorded: none of the antioxidative compounds tested, including vitamin E, proved to be effective"}, {"measurement": "clinical efficacy in ALS", "setting": "ALS; listed as Vitamin E", "result": "ineffective in ALS treatment"}]}]}
